Experimental data taken from EP1172443A1, “METHOD FOR SCREENING CYSTEINE PROTEASE INHIBITOR” (YAMANOUCHI PHARMACEUTICAL CO. LTD., priority 1999, dated 2000).
Peptide text beside a SMILES is read from it. * marks the point of attachment. Cbz = O=C(OCc1ccccc1)*; CH2F = FC*

Experiments:
[1] = tested on: rat hippocampal neuron; assay: Apoptosis inhibitory action: suppression of DNA fragmentation induced by Etoposide; assay type: cell-based
Description: Cultured rat hippocampal neuron was prepared according to a usual method (Neurochem. Int., 31(5), 715-722, 1997). Brain was taken out of a fetus of rat at day 19 of gestation, and hippocampus was picked up under a stereomicroscope. The hippocampus was treated with an enzyme, dispersed by pipetting several times, and cell clusters were removed through a filter to prepare a cell suspension. The cell was cultured at a concentration of 1.2 x 10^5 cells/cm^2 in a 12-well plate coated with polylysine. A "culture medium for neuron" manufactured by Sumitomo Bakelite Co., Ltd. was used as the culture liquid. The neuronal cell at 13 to 16 days of culture was used. Etoposide was employed for inducing apoptosis of the neuronal cell. The induction of DNA fragments was evaluated as a marker of apoptosis.
Cell stimulation was carried out by replacing the cell culture medium with a serum-free medium containing 3 µg/mL Etoposide. After 6 hours from the start of the stimulation, the cell was recovered. TaKaRa ApopLadder Ex kit was used for the extraction of fragmented DNA. The fragmented DNA were subjected to electrophoresis followed by staining with CYBR Green, and the fluorescence intensity of the DNA was measured by means of a scanner manufactured by Molecular Dynamics Co.

[2] = molecular target: T1, caspase 3 (Homo sapiens, UniProt P42574); assay: Examination of caspase 3 inhibitory mode in the presence of zinc (Lineweaver-Burk plots); assay type: biochemical
T1 construct: the N-terminal region encoding a protein with a molecular weight of about 17 kDa (p17); C-terminal region encoding a protein with a molecular weight of about 12 kDa (p12); made in house; host or cells: Escherichia coli BL21 (DE3) pLysS, plasmid pET3a
T1 sequence (P42574 29-175 limits assumed): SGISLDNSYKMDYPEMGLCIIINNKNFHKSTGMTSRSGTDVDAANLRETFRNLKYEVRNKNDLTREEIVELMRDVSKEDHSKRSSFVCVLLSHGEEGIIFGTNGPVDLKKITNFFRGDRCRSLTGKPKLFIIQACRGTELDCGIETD
T1 sequence (P42574 176-277 limits assumed): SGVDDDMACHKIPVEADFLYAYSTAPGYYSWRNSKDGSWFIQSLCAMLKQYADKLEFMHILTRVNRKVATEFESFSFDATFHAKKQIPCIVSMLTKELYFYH
Description: (§1) Solution A comprising composition of 50 mM HEPES, pH 7.5, 10% (w/v) saccharose, and 0.1% (w/v) 3-[(3-cholamidopropyl)dimethylammonio]-1-propane sulfonate (CHAPS) was used as the base of a liquid for enzymatic reaction with adding a test compound, if necessary. A 10 ng/100 µL human caspase 3 solution (Solution B: Solution A + 10 mM dithiothreitol (DTT)) and a test compound at different concentrations were mixed and the mixture was left at room temperature for 30 minutes. In a control experiment, caspase 3 mixed with DMSO instead of the test compound was used. Then, 100 µL of 50 µM Ac-Asp-Glu-Val-Asp-MCA (Solution A, Peptide Kenkyusyo, 3171-v) as a substrate solution were added thereto to start reaction. Time course of the decomposition of the substrate were measured on a fluorescent photometer (Corona Denki, MTP-32, excitation wavelength/360 nm, emission waverangeth/450 nm or SLT, fluostar, excitation wavelength/380 nm, emission wavelength/460 nm) and an enzyme activity of the test compound-added group relative to the control was calculated.
(§2) The effects of the test compound at various concentrations on the enzyme activity were measured in a similar manner to the case in the absence of zinc ion as described in the section 1). However, a substrate solution containing 3 mM ZnSO4 was used.
The caspase 3 inhibitory mode of Compound A in the presence of zinc was examined according to the methods 1) and 2) of Example 3. […] The inhibitory mode was analyzed with Lineweaver-Burk plots (double reciprocal plots).
The caspase 3 inhibitory mode of Compound B in the presence of zinc was examined according to the methods 1) and 2) of Example 3. […] The inhibitory mode was analyzed with Lineweaver-Burk plots (double reciprocal plots).
The caspase 3 inhibitory mode of Compound C in the presence of zinc was examined according to the methods 1) and 2) of Example 3. […] The inhibitory mode was analyzed with Lineweaver-Burk plots (double reciprocal plots).

[3] = molecular target: T1, caspase 3; assay: Screening method of caspase 3 inhibitor, in the presence of zinc ion (substrate solution containing 3 mM ZnSO4); assay type: biochemical; details: for IC50: in the presence of zinc ion; for ratio (enzyme activity (+Zn)/enzyme activity (-Zn)): test compound 100 µM, 25 ng/100 µL human caspase 3, reaction time 15 minutes
Description: (§3) From human brain cDNA, the N-terminal region encoding a protein with a molecular weight of about 17 kDa (p17) and C-terminal region encoding a protein with a molecular weight of about 12 kDa (p12) were amplified by PCR, and then subcloned into an Escherichia coli expression plasmid (pET3a). Using these plasmids, a host bacterium for expressing proteins (BL21 (DE3) pLysS) was transformed. Then, the transformed bacterium was cultured in M9 medium and an active caspase 3 was prepared. Firstly, fungus body recovered from M9 medium was broken by sonication and an inclusion body was recovered by centrifugation. The inclusion body was solubilized under denatured conditions using 3M guanidine solution, and after mixing with p17 polypeptide and p12 polypeptide, diluted with a dialysis solution. The whole was left at room temperature for 1 hour at this situation, and after regeneration, concentrated. After the sample was dialyzed to exchange the buffer solution, insoluble proteins were removed by ultracentrifugation (100,000 X G, 30 minutes). Upon quantitative protein determination, about 30 mg of a protein was recovered.
as §1, with “A 10 ng/100 µL human caspase 3 solution (Solution B: Solution A + 10 mM dithiothreitol (DTT)) and a test compound at different concentrations were mixed and the mixture was left at room temperature for 30 minutes.” left out
as §2
The enzyme activities calculated in the absence of zinc ion (-Zn) and in the presence of zinc ion (+Zn) were compared (enzyme activity (+Zn)/enzyme activity (-Zn)).

[4] = molecular target: T1, caspase 3; assay: Screening method of caspase 3 inhibitor, in the absence of zinc ion (fluorogenic substrate Ac-Asp-Glu-Val-Asp-MCA); assay type: biochemical; details: for inhibition at 100 µM: at 100 µM in the absence of zinc ion, read-out: enzyme activity inhibited
Description: as §3
as §1, with “Then, 100 µL of 50 µM Ac-Asp-Glu-Val-Asp-MCA (Solution A, Peptide Kenkyusyo, 3171-v) as a substrate solution were added thereto to start reaction.” left out

Row | caspase 3 inhibitory mode [2] | ratio (enzyme activity (+Zn)/enzyme activity (-Zn)) [3] | Compound | IC50 [3] | inhibition at 100 µM [4] | further results
1 | substrate-competitive and reversible |  | CCCN1C(=O)C2(Oc3c(c(=O)n(CCC)c4ncccc34)S2)C(=O)c2cccnc21 (centres unmarked) [Compound C, 1,5'-dipropylspiro[1,8-naphthyridine-3(2H),2'-[1,3]oxathiolo[4,5-c][1,8]naphthyridine]-2,4,4' (1H,5'H)-trione] | 1.2 µM | 17% | IC50 ([1]; Rattus norvegicus, Hippocampal neuron, 3 µg/mL Etoposide, 6 hours, compound at 10, 25, 50 µM, no zinc added to medium): 17 µM
2 |  |  | CCCN1C(=O)C2(Oc3c(c(=O)n(CCC)c4ccccc34)S2)C(=O)c2ccccc21 (centres unmarked) [Compound D] | 0.35 µM | 13% | apoptosis inhibitory action ([1]; at a concentration of 33.3 µM, added together with Etoposide): strong apoptosis inhibitory action
3 | substrate-competitive and reversible | 0.44 | ON=C(c1nc2ccccc2[nH]1)c1nc2ccccc2[nH]1 [Compound B, bis(1H-benzimidazol-2-yl)ketone oxime] |  |  | 
4 | substrate-competitive and reversible | 0.37 | c1ccc2[nH]c(Cc3nc4ccccc4[nH]3)nc2c1 [Compound A, bis(1H-benzimidazol-2-yl)methane] |  |  | 
5 |  |  | COC(=O)C[C@H](NC(=O)[C@H](C)NC(=O)[C@@H](NC(=O)OCc1ccccc1)C(C)C)C(=O)CF [z-VAD.FMK, z-Val-Ala-Asp(OMe)-CH2F, reference compound] (Cbz-Val-Ala-Asp(OMe)-CH2F) |  |  | effect of zinc ion on the caspase 3 inhibitory activity ([3]; comparison of presence and absence of zinc ion): no remarkable enhancing effect; IC50 ([3]; reaction time 30 minutes): 0.55 µM; IC50 ([4]; in the absence of zinc ion, reaction time 30 minutes): 0.51 µM
